Values quoted from earlier work in US20110153027A1, “Drug Delivery System” (Vysera Biomedical Limited, priority 2009, published 2011).

What was measured:
[1] = minimum effective concentration
[2] = compared with cyclosporine

Compound | MEC [1] [µg/mL] | water solubility [2]
Sc1ncnc2nc[nH]c12 [6-mercaptopurine] | 1 | 
Cn1cnc([N+](=O)[O-])c1Sc1ncnc2nc[nH]c12 [Azathioprine] | 1 | 
O=C(O)c1cn(C2CC2)c2cc(N3CCNCC3)c(F)cc2c1=O [Ciprofloxacin] | 0.2 | 
Cc1ncc([N+](=O)[O-])n1CCO [Metronidazole] | 8 | higher water solubility than cyclosporine
